Among the data in patent US7723376B2, “2-oxo-heterocyclic compounds and pharmaceutical compositions” (Korea Research Institute of Bioscience and Biotechnology, priority 2003, dated 2010) are IC50 values, retold here.

In this assay the test system is PC-3 cells. Kind of assay: Tumor cell growth inhibition, sulforhodamine B (SRB) staining. The conditions noted are these: PC-3 human prostatic carcinoma cells, 48 hrs, absorbance 540 nm, adriamycin as positive control. The class given is cell-based. The procedure: PC-3 cells (ATCC, US), human prostatic carcinoma cell line, were cultured in RMPI 1640 supplemented with 10% fetal bovine serum.
Appropriate concentrations of cells (5×10^4 cells/ml) cultured in RMPI 1640 supplemented with 5% fetal bovine serum were poured into 96-well plate and incubated at 37° C. in 5% CO2 condition. The day after the incubation, PC-3 cells were fixed on Time zero (T0) plate by adding 50 μl/well of 50% trichloroacetic acid and the cell concentration was set to zero point by fixing the cells. In the cells treated with test samples, 50% TCA was added to each wells in 50 ul/well after 48 hrs to fix the cells. The final concentration of adding test compounds were 0.01, 0.03, 0.1, 0.3, 1 μg/ml respectively. Then, each fixed plate was washed, dried and 100 μl/well of 0.4% reaction solution containing sulforhodamine B (SRB) reagent dissolved in 0.1% acetic acid was added thereto to stain the cells. 30 minutes later, the cell was washed with 0.1% acetic acid, dried at room temperature, and 10 mM of TRIS base (pH 10.5) was added thereto to dissolve the staining agent. Finally, the absorbance detected at 540 nm was measured and the value was conversed into percentage comparing with that of control group. IC50 (μg/ml), the concentration of the group required to inhibit the cancer cell growth by 50%, was calculated from the data (AA: IC50's<1, A: IC50's<5, B: IC50's<10 and C: IC50's>10). Also, the inhibiting activity of cell growth was expressed as various symbols in accordance with the potency of examples e.g., AA: closely equivalent (1˜2 times), A: slightly weaker (3˜5 times), B: weaker (5˜10 times), C: very weaker (more than 10 times) than that of adriamycin used as a positive control group.
A general note: In SRB staining, fixed cells bind dye roughly in proportion to their protein.

A value given as a limit tells only on which side of the number the result lay.

By IC50 is commonly meant the concentration needed to halve the response being measured. Low values mean higher potency, high ones lower potency. As for `O=C(CCC1=CCN(CCc2cccs2)C1=O)NO` [Example 54, N-hydroxy-3-[2-oxo-1-(2-thiophen-2-yl-ethyl)-2,5-dihydro-1H-pyrrol-3-yl]-propionamide], the 50% inhibitory concentration (IC50) was < 5 µg/mL. In the case of `O=C(O)CCC1=CCN(Cc2ccccc2)C1=O` [Example 17, 3-(1-benzyl-2-oxo-2,5-dihydro-1H-pyrrol-3-yl)-propionic acid], the IC50 is > 10 µg/mL.

On to `COc1ccc(CN2CC=C(CCC(=O)NO)C2=O)cc1` [Example 11, N-hydroxy-3-[1-(4-methoxy-benzyl)-2-oxo-2,5-dihydro-1H-pyrrol-3-yl]-propionamide], for which the concentration for half-maximal inhibition (IC50) is < 1 µg/mL. Under `COc1ccc(CN2CCC(CC(=O)NO)C2=O)c(OC)c1` (centres unmarked) [Example 26, 2-[1-(2,4-dimethoxy-benzyl)-2-oxo-pyrrolidin-3-yl]-N-hydroxy-acetamide] stands > 10 µg/mL.

Regarding `COc1ccc(CN2CC=C(CC(=O)NO)C2=O)c(OC)c1` [Example 21, 2-[1-(2,4-dimethoxy-benzyl)-2-oxo-2,5-dihydro-1H-pyrrol-3-yl]-N-hydroxy-acetamide], the 50% inhibitory concentration (IC50) is > 10 µg/mL. Under `COc1ccccc1CCN1CC=C(CCC(=O)NO)C1=O` [Example 36, N-hydroxy-3-{1-[2-(2-methoxy-phenyl)-ethyl]-2-oxo-2,5-dihydro-1H-pyrrol-3-yl}-propionamide] stands < 5 µg/mL; under `O=C(CC1=CCN(CCc2ccccc2)C1=O)NO` [Example 22, N-hydroxy-2-(2-oxo-1-phenethyl-2,5-dihydro-1H-pyrrol-3-yl)-acetamide], > 10 µg/mL; under `O=C(O)CCC1=CCCN(Cc2ccc([N+](=O)[O-])cc2)C1=O` [Example 65, 3-[1-(4-nitro-benzyl)-2-oxo-1,2,5,6-tetrahydro-pyridin-3-yl)-propionic acid], > 10 µg/mL. Under `Cc1ccc(CCCN2CC=C(CCC(=O)NO)C2=O)cc1` [Example 40, N-hydroxy-3-[2-oxo-1-(3-p-tolyl-propyl)-2,5-dihydro-1H-pyrrol-3-yl]-propionamide] stands < 5 µg/mL; under `COc1ccc(CN2CCC=C(CCC(=O)O)C2=O)c(OC)c1` [Example 63, 3-[1-(2,4-dimethoxybenzyl)-2-oxo-1,2,5,6-tetrahydro-pyridin-3-yl)-propionic acid], > 10 µg/mL; under `O=C(CCC1=CCN(Cc2ccc(NC(=O)c3ccccc3)cc2)C1=O)NO` [Example 18, N-{4-[3-(2-hydroxycarbamoyl-ethyl)-2-oxo-2,5-dihydro-pyrrole-1-yl-methyl]-phenyl}-benzamide], < 10 µg/mL.

As for `Cc1ccc(CCN2CC=C(CCC(=O)NO)C2=O)cc1` [Example 39, N-hydroxy-3-[2-oxo-1-(2-p-tolyl-ethyl)-2,5-dihydro-1H-pyrrol-3-yl]-propionamide], the concentration for half-maximal inhibition (IC50) was < 5 µg/mL. Under `COc1ccc(CCCN2CC=C(CCC(=O)NO)C2=O)cc1` [Example 46, N-hydroxy-3-{1-[3-(4-methoxy-phenyl)-propyl]-2-oxo-2,5-dihydro-1H-pyrrol-3-yl]-propionamide] stands < 10 µg/mL; under `O=C(CC1=CCN(CCCCc2ccccc2)C1=O)NO` [Example 23, N-hydroxy-2-[2-oxo-1-(4-phenyl-butyl)-2,5-dihydro-1H-pyrrol-3-yl]-acetamide], > 10 µg/mL. Under `COc1cccc(CCN2CC=C(CCC(=O)NO)C2=O)c1` [Example 37, N-hydroxy-3-{1-[2-(3-methoxy-phenyl)-ethyl]-2-oxo-2,5-dihydro-1H-pyrrol-3-yl}-propionamide] stands < 5 µg/mL; under `CN1CCC=C(CCC(=O)NO)C1=O` [Example 102, N-hydroxy-3-(1-methyl-2-oxo-1,2,5,6-tetrahydro-pyridin-3-yl)-propionamide], > 10 µg/mL; under `Cc1ccccc1CN1CC=C(CCC(=O)NO)C1=O` [Example 6, N-hydroxy-3-[1-(2-methyl-benzyl)-2-oxo-2,5-dihydro-1H-pyrrol-3-yl]-propionamide], < 10 µg/mL. With `O=C(CCC1=CCCCN(Cc2ccccc2)C1=O)NO` [Example 105, 3-(1-Benzyl-2-oxo-2,5,6,7-tetrahydro-1H-azepin-3-yl)-N-hydroxy-propionamide], the IC50 was > 10 µg/mL. For the compound `Cc1ccc(S(=O)(=O)Nc2ccc(CN3CCC=C(CCC(=O)NO)C3=O)cc2)cc1` [Example 77, N-hydroxy-3-2-oxo-1-[4-(toluene-4-sulfonylamino)-benzyl-1,2,5,6-tetrahydro-pyridin-3-yl]-propionamide], the IC50 is < 5 µg/mL.

`O=C(CCC1=CCN(CCc2cccc([N+](=O)[O-])c2)C1=O)NO` [Example 32, N-hydroxy-3-{1-[2-(3-nitro-phenyl)-ethyl]-2-oxo-2,5-dihydro-1H-pyrrol-3-yl}-propionamide]: the IC50 was < 5 µg/mL. Under `O=C(CCC1=CCN(CCCc2ccc(Cl)cc2)C1=O)NO` [Example 45, 3-{1-[3-(4-chloro-phenyl)-propyl]-2-oxo-2,5-dihydro-1H-pyrrol-3-yl]-N-hydroxy-propionamide] stands < 10 µg/mL. Under `O=C(CCC1=CCN(CCc2ccccc2[N+](=O)[O-])C1=O)NO` [Example 31, N-hydroxy-3-{1-[2-(2-nitro-phenyl)-ethyl]-2-oxo-2,5-dihydro-1H-pyrrol-3-yl}-propionamide] stands < 5 µg/mL; under `Cc1ccc(S(=O)(=O)Nc2ccc(CN3CC=C(CCC(=O)NO)C3=O)cc2)cc1` [Example 19, N-hydroxy-3-{2-oxo-1-[4-(toluene-4-sulfonylamino)-benzyl]-2,5-dihydro-1H-pyrrol-3-yl}-propionamide], < 10 µg/mL; under `O=C(CCC1=CCN(Cc2ccc3ccccc3c2)C1=O)NO` [Example 49, N-hydroxy-3-(1-naphthalene-2-ylmethyl-2-oxo-2,5-dihydro-1H-pyrrol-3-yl)-propionamide], < 5 µg/mL. Under `O=C(CCC1=CCN(Cc2ccc(Br)cc2)C1=O)NO` [Example 12, 3-[1-(4-bromo-benzyl)-2-oxo-2,5-dihydro-1H-pyrrol-3-yl]-N-hydroxy-propionamide] stands < 1 µg/mL; under `O=C(CCC1=CCN(CCc2cccc(F)c2)C1=O)NO` [Example 29, 3-{1-[2-(3-fluoro-phenyl)-ethyl]-2-oxo-2,5-dihydro-1H-pyrrol-3-yl}-N-hydroxy-propionamide], < 5 µg/mL; under `COc1ccc(CN2CC=C(CCC(=O)O)C2=O)c(OC)c1` [Example 16, 3-[1-(2,4-dimethoxy-benzyl)-2-oxo-2,5-dihydro-1H-pyrrol-3-yl]-propionic acid], > 10 µg/mL. With `O=C(CCC1=CCN(CCCc2ccc(Br)cc2)C1=O)NO` [Example 44, 3-{1-[3-(4-bromo-phenyl)-propyl]-2-oxo-2,5-dihydro-1H-pyrrol-3-yl]-N-hydroxy-propionamide], the IC50 was < 10 µg/mL. Under `O=C(CCC1=CCCN(Cc2ccccc2)C1=O)NO` [Example 58, N-hydroxy-3-(1-benzyl-2-oxo-1,2,5,6-tetrahydro-pyridin-3-yl)-propionic acid] stands < 10 µg/mL. Under `O=C(CCC1=CCN(Cc2ccc(OCc3ccccc3)cc2)C1=O)NO` [Example 14, 3-[1-(4-benzyloxy-benzyl)-2-oxo-2,5-dihydro-1H-pyrrol-3-yl]-N-hydroxy-propionamide] stands < 10 µg/mL; under `Cc1ccccc1CCCN1CC=C(CCC(=O)NO)C1=O` [Example 41, N-hydroxy-3-[2-oxo-1-(3-o-tolyl-propyl)-2,5-dihydro-1H-pyrrol-3-yl]-propionamide], < 10 µg/mL. Under `COc1ccc(CN2CC=C(CCC(=O)NO)C2=O)c(OC)c1` [Example 1, 3-[1-(2,4-Dimethoxybenzyl)-2-oxo-2,5-dihydro-1H-pyrrol-3-yl]-N-hydroxypropionamide] stands < 5 µg/mL. `O=C(CCC1=CCCN(CCc2ccccc2)C1=O)NOCc1ccccc1` [Example 73, N-benzyloxy-3-(2-oxo-1-phenethyl-1,2,5,6-tetrahydro-pyridin-3-yl)-propionamide]: the IC50 is > 10 µg/mL. Regarding `CN1CC=C(CCC(=O)NO)C1=O` [Example 50, N-hydroxy-3-(1-methyl-2-oxo-2,5-dihydro-1H-pyrrol-3-yl)-propionamide], the IC50 was < 1 µg/mL. On to `COc1ccc(CN2CCCC(CC(=O)NO)C2=O)c(OC)c1` (centres unmarked) [Example 92, 2-[1-(2,4-dimethoxy-benzyl)-2-oxo-piperidine-3-yl]-N-hydroxy-acetamide], for which the IC50 is > 10 µg/mL.

For the compound `COc1ccccc1CN1CC=C(CCC(=O)NO)C1=O` [Example 9, N-hydroxy-3-[1-(2-methoxy-benzyl)-2-oxo-2,5-dihydro-1H-pyrrol-3-yl]-propionamide], the concentration for half-maximal inhibition (IC50) is < 5 µg/mL. Under `O=C(CCC1=CCCN(Cc2ccc3ccccc3c2)C1=O)NO` [Example 103, N-hydroxy-3-(1-(naphthalene-2-yl-methyl)-2-oxo-1,2,5,6-tetrahydro-pyridin-3-yl)-propionamide] stands < 10 µg/mL.

In the case of `O=C(CCC1=CCCN(CCc2cccs2)C1=O)NO` [Example 104, N-hydroxy-3-[2-oxo-1-(2-thiophen-2-yl-ethyl)-1,2,5,6-tetrahydro-pyridin-3-yl]-propionamide], the IC50 is < 10 µg/mL.
